Experimental data published in PMC9997068, “Impact of Gastric pH Variations on the Release of Amorphous Solid Dispersion Formulations Containing a Weakly Basic Drug and Enteric Polymers” (Molecular Pharmaceutics, 2023).

Assay: Drug crystallization in media of different pH (PXRD)
Assay type: physicochemical
Method: PXRD was used to confirm the amorphous state of freshly prepared DLM ASDs and to detect drug crystallization in solution. […] Crystallization of the DLM salt was evaluated at predetermined time points. Drug crystallization in ASDs upon acidic incubation was conducted at the same drug concentration as in the dissolution testing: 20 mg of ASD powder was added to 50 mL of acidic solutions at pH 1.6, 3.0, or 5.0 and kept stirring at 300 rpm, 37 °C for 1 h.
Undissolved particles were collected by vacuum filtration and analyzed using a Rigaku Smartlab diffractometer (Rigaku Americas, The Woodlands, TX) equipped with a Cu–Kα radiation source and a D/tex ultradetector. Diffractograms were acquired with a scanning speed of 4°/min (4–40° 2θ) and 0.02° step size. The voltage and current were 40 kV and 44 mA, respectively.

pHmax (crystallization to the free base observed at all pHs investigated): < 1.6
immersion time at which evidence of crystalline free base was seen (neat amorphous salt in suspension, 37 °C): 5 min
crystallization of neat amorphous salt (pH 1.6 and 3.0): rapid
rate of crystallization of neat amorphous salt (pH 5.0 and 6.5): much reduced
Structure (SMILES): C[C@]1(COc2ccc(N3CCC(Oc4ccc(OC(F)(F)F)cc4)CC3)cc2)Cn2cc([N+](=O)[O-])nc2O1.O=S(=O)(O)CCS(=O)(=O)O [DLM edisylate]
